Laboratory results published in patent US9034812B2, “Compositions and methods for treating biofilms” (Ohio University, priority 2011, dated 2015).

How the values were obtained:
[1] = test system: D. vulgaris (ATCC 7757) SRB biofilm; assay: Prevention of SRB biofilm establishment on carbon steel coupons (Example 1): sessile cell count and SEM; type: cell-based, Desulfovibrio vulgaris; conditions: alone; for Sessile SRB cells on coupon surface (SEM), biofilm prevention: 7-day coupons
Method: D. vulgaris (ATCC 7757), a laboratory SRB strain, was cultured in ATCC 1249 medium. Quarter strength medium with only four key ingredients, i.e., MgSO4, sodium lactate, Fe(NH4)2(SO4)2 and yeast extract at concentrations ¼ of those in the full ATCC 1249 medium was also used to simulate a less nutritious environment. […] SRB culture media were sterilized in an autoclave and then deoxygenated using N2 (filter sterilized) sparging. SRB cells were enumerated using an SRB test kit (Sani-Check® Product #100, Biosan Laboratories, Warren, Mich., USA). […] Below this cell count, it is hard to catch an individual cell under the light microscope. The Most Probable Number (MPN) enumeration method is a standard method to estimate very low cell counts. MPN succeeds by growing the cells first and correlating the cell counts with the appearance of black color (due to FeS produced by SRB). […] The SRB test kit used in this example is equivalent to an MPN method using a solid medium instead of a liquid medium.
Anaerobic vials used in this example were 125 ml (Catalog No. 223748, Wheaton Industries Inc., 143 Millville, N.J., USA), each filled with 100 ml of culture medium. A glovebox filled with filter-sterilized N2 provided an anaerobic environment. To mitigate any possible oxygen leaks, 100 ppm L-cysteine (Fisher Scientific, Pittsburgh, Pa., USA), an oxygen scavenger, was added to the culture media. Thin disk shaped C1018 carbon steel coupons with a top disk surface area of 1.12 cm^2 were polished with 200, 400, and 600 grit abrasive papers progressively. Only the top surface of each coupon was exposed to the culture medium. The rest of the surfaces were coated with inert Teflon. After polishing, the coupons were weighed. The coupons were cleaned using isopropanol and then dried under UV light for 15 minutes.
Three duplicate coupons and 1 ml of a 3-day old SRB seed culture were added to each anaerobic vial. The initial SRB cell concentration in each vial immediately after inoculation was approximately 10^6 cells/ml. After adding treatment chemical(s) following inoculation, the vials were sealed and then incubated at 37° C. After 7 days of incubation, the biofilm on a coupon surface was observed under SEM. The procedure to prepare a coupon for SEM observation of a biofilm was described by Wen et al., Inter. […] Au coating of the biofilm covered coupon was necessary for SEM because the biofilm was not conductive. An SEM image was taken for the spot with most sessile cells after screening three duplicate coupons. A special control coupon was inserted in a vial containing the culture medium without biocide treatment and incubated without inoculation. This abiotic control would indicate yellow rust if an oxygen leak occurred. Its surface was also scanned for sessile cells under SEM for possible microbial contamination. Care was also taken to identify sessile cells that looked different from D. vulgaris during biofilm observation under SEM, which would indicate microbial contamination.
To obtain the average sessile cell density on a coupon surface, the sessile cells were first scraped off from the surface of a duplicate coupon onto a brush-like dipstick of the SRB test kit handled with sterile tweezers. The dipstick was wetted with deoxygenated water before scraping. Most of the sessile cells were collected by the dipstick. […]

[2] = test system: D. vulgaris (ATCC 7757) SRB biofilm; assay: Prevention of SRB biofilm establishment (Example 2): sessile cell count (MPN) and SEM; type: cell-based, Desulfovibrio vulgaris; conditions: 100 ppm, alone, 7 days; for Sessile SRB cells on coupon (SEM), biofilm prevention: full-strength medium
Method: D. vulgaris (ATCC 7757), a common SRB strain, was used in this example. Before inoculation, the culture media were autoclave sterilized and then sparged with filter-sterilized nitrogen for at least 45 minutes to remove dissolved oxygen. SRB growth was carried out in 125 ml anaerobic vials (Catalog No. 223748, Wheaton Industries Inc., Millville, N.J., USA) filled with 100 ml culture medium. In the test, 1 ml SRB seed culture was used to inoculate each anaerobic vial to achieve an SRB concentration of 10^6 cells/ml right after inoculation. The full-strength ATCC 1249 medium with 200 ppm Fe^2+ was used to grow SRB biofilm on coupon surfaces.
It was neutralized to pH 7.0 by adding a sodium hydroxide solution. Coin shaped C1018 carbon steel coupons with a top exposed surface area of 1.12 cm^2 were used as substratum for SRB growth. The side and bottom surfaces were coated with inert Teflon. The top surface was polished sequentially by 200, 400, and 600 grit abrasive papers. Nitrogen sparging was used to remove dissolved oxygen in all liquids and to provide an anaerobic environment in a glove box. 100 ppm L-cysteine (Fisher Scientific, Pittsburgh, Pa., USA) was added to the culture media as an oxygen scavenger to mitigate any possible oxygen leak.
One milliliter of SRB seed culture was added at the beginning of the tests and the vials were sealed and incubated at 37° C. without shaking. After 7 days, the coupons were taken out and examined for sessile SRB cells.
(§1) The procedure to prepare a coupon for SEM observation of a biofilm on a coupon surface was described by Wen et al., Inter. Biodeter. Biodegr., (2009), 63:1102-1106. […] Thus, an SEM image was taken after searching for a spot with the most sessile cells. The cells seen in the SEM images should not be used to count the sessile cells because of uneven distribution. Instead, the Most Probable Number (MPN) method was used to enumerate sessile cells. SEM images could be used as qualitative visual confirmation of biofilm removal.
(§2) Viable D. vulgaris cells can be seen as motile cells under a light microscope at 400×. Thus they can be counted using a hemocytometer. However, this method has a detection limit of 5×10^4 cells/ml minimum at 400× magnification. It is a standard practice to enumerate very low cell counts using the semi-quantitative most probable number (MPN) method with a liquid culture medium or a solid medium. The accuracy of MPN is typically 1 log in cell numbers. Thus, it takes at least a 2-log reduction to assure the efficacy of a biocide system. In this example, the sessile cells on a coupon were scraped and collected in a test tube by using the brush-like dipstick that was part of an SRB test kit (Sani-Check® Product #100 from Biosan Laboratories, Warren, Mich., USA). The dipstick was then soaked in 10 ml sterilized distilled water and vortexed for 30 s. Finally, the dipstick was inserted into the test kit's vial containing a solid SRB culture medium. The SRB sessile cell concentration was based on how long it took for the black color (FeS) to appear in the medium around the dipstick. The tests were repeated three separate times. Each time, two coupons were used for sessile SRB cell counting.

[3] = test system: mature D. vulgaris (ATCC 7757) SRB biofilm; assay: Removal of established SRB biofilm, 1-h and 3-h simulated slug treatment (Example 2); type: cell-based, Desulfovibrio vulgaris; conditions: alone
Method: The full-strength ATCC 1249 medium was used to grow SRB biofilms on coupon surfaces first. […] In the anaerobic chamber, the coupons were taken out and rinsed with phosphate buffered saline (PBS) buffer to remove loose planktonic cells. The coupons were then placed into petri dishes containing treatment chemicals in a water solution. Some coupons were treated for 1 h and some for 3 h. This simulated slug treatment with a contact time lasting 1 and 3 h, respectively, as in the situation when a biocide slug flows inside a pipeline. Flow effect was not considered here. Exposing SRB cells on a coupon from the ATCC 1249 medium to a water solution lacking salt ions might cause osmotic shock that could interfere with the biocide efficacy evaluation. Instead of using PBS buffer commonly used in cell cultures, two salts in the original medium, MgSO4 and (NH4)2Fe(SO4)2, were added to the 1 and 3-h treatment solutions at ¼ of their corresponding concentrations in the full-strength ATCC 1249 medium. The treated coupons were then removed and examined for sessile SRB cells. The diluted medium was used here to simulate the residual nutrients retained by the local biofilms when the bulk pipeline or tank fluid is displaced by the biocide solution during a field treatment.
as §1, §2

[4] = test system: D. vulgaris (ATCC 7757) SRB biofilm; assay: Mitigation of MIC pitting and weight loss of C1018 carbon steel coupons (Example 1); parameters: species or system Desulfovibrio vulgaris; conditions: 50 ppm, alone; 7 days
Excerpt: The coupons for SEM used in above in “Prevention of Biofilm Establishment” were reused to observe the MIC pitting after their biofilms and Au coating were removed using the Clark's solution. Coupon weight loss data were obtained from another duplicate coupon in each vial. The coupon surface was cleaned to remove biofilms and mineral deposits using the Clark's solution before weighing.

CC(C)C[C@@H](N)C(=O)O [D-leucine]
Sessile cell count ([1]; 500 ppm, after 7 days, ATCC 1249 medium): ≧10^5 cells/cm^2

CSCC[C@@H](N)C(=O)O [D-methionine]
Sessile SRB cells on coupon surface (SEM), biofilm prevention ([1]; 500 ppm): had sessile SRB cells on their surfaces

N[C@H](Cc1c[nH]c2ccccc12)C(=O)O [D-tryptophan]
Sessile SRB cells on coupon surface (SEM), biofilm prevention ([1]; 100 ppm): ineffective

N[C@H](Cc1ccc(O)cc1)C(=O)O [D-tyrosine]
Reduction of SRB sessile cells versus untreated control [2]: 1 log | Sessile SRB cells on coupon (SEM), biofilm prevention [2]: completely ineffective | Sessile SRB cells on coupon surface (SEM), biofilm prevention ([1]; 10 ppm): not effective in preventing SRB biofilm formation | Sessile SRB cells on coupon (SEM), 1-h shock treatment ([3]; 100 ppm, 1 h): left many sessile cells on the coupon surface | Sessile cell count for 3-h treatment ([3]; 100 ppm): ≧10^5 cells/cm^2

Tetrakis hydroxymethyl phosphonium sulfate [THPS]
Kill of SRB sessile cells [2]: 99.999% | Reduction of SRB sessile cells versus untreated control [2]: 5 log | Sessile SRB cells on coupon (SEM), biofilm prevention [2]: partially effective | Normalized coupon weight loss (average) [4]: 0.65 mg/cm^2 | Sessile SRB cells on coupon surface (SEM), biofilm prevention ([1]; 100 ppm): had sessile SRB cells on their surfaces | Reduction of sessile SRB concentration versus control ([3]; 50 ppm, 1 h): 2 log | Sessile SRB cells on coupon (SEM), 1-h shock treatment ([3]; 50 ppm, 1 h): numerous sessile SRB cells remained | Sessile cell count for 1-h treatment ([3]; 50 ppm, 1 h): ≧10^4 cells/cm^2 | Sessile cell count for 3-h treatment ([3]; 50 ppm): ≧10^3 cells/cm^2
